The values below are quoted from earlier work in patent US9393439B2, “Radiotherapy combined with hypoxic cell sensitizers” (IntraOp Medical Corporation, priority 2010, dated 2016).

The conditions of the series: patients, single dose administration; above this level the incidence of side effects increases.

For the molecule `O=C(Cn1ccnc1[N+](=O)[O-])NCCO` [Etanidazole, etanidazole], the “maximum tolerated dose (dose that may safely be given)” value is 12 gm/m^2.
